Laboratory results reported in ChEMBL document CHEMBL1909281, “FDA-approved drug labeling for the study of drug-induced liver injury” (Drug Discov Today, 2011).

Key:
Hepatotoxicity [1] = experiment: FDA Liver Toxicity Knowledge Base Benchmark Dataset (LTKB-BD) drugs of most concern for DILI
Hepatotoxicity [2] = tested on: Hepatotoxicity

Row | Compound | LTKB_BD DILI severity score (Hepatotoxicity [1]) | also measured
1 | CC1=C(CC(=O)O)c2cc(F)ccc2/C1=C\c1ccc([S+](C)[O-])cc1 (stereo unspecified) | 8 | –
2 | CCC[C@@]1(CCc2ccccc2)CC(O)=C([C@H](CC)c2cccc(NS(=O)(=O)c3ccc(C(F)(F)F)cn3)c2)C(=O)O1 | 8 | –
3 | CC(C)(C)NC(=O)[C@@H]1CN(Cc2cccnc2)CCN1C[C@@H](O)C[C@@H](Cc1ccccc1)C(=O)N[C@H]1c2ccccc2C[C@H]1O.O | 8 | –
4 | COc1ccc(CCN(C)CCCC(C#N)(c2ccc(OC)c(OC)c2)C(C)C)cc1OC (stereo unspecified) | 4 | –
5 | Nc1nc(NC2CC2)c2ncn([C@H]3C=C[C@@H](CO)C3)c2n1 [ABACAVIR] | 8 | –
6 | C[C@H]1O[C@H](O[C@H]2[C@H](O)[C@@H](O)[C@@H](O[C@H]3[C@H](O)[C@@H](O)C(O)O[C@@H]3CO)O[C@@H]2CO)[C@H](O)[C@@H](O)[C@@H]1N[C@H]1C=C(CO)[C@@H](O)[C@H](O)[C@H]1O (stereo partly specified) [ACARBOSE] | 5 | –
7 | COc1cc(C)c(/C=C/C(C)=C/C=C/C(C)=C/C(=O)O)c(C)c1C [ACITRETIN] | 5 | –
8 | COC(c1ccccc1)(c1ccccc1)[C@H](Oc1nc(C)cc(C)n1)C(=O)O [AMBRISENTAN] | 5 | –
9 | Nc1ccc(C(=O)O)c(O)c1 [AMINOSALICYLIC ACID] | 5 | –
10 | CCCCc1oc2ccccc2c1C(=O)c1cc(I)c(OCCN(CC)CC)c(I)c1 [AMIODARONE] | 8 | –
11 | CC(O)(CS(=O)(=O)c1ccc(F)cc1)C(=O)Nc1ccc(C#N)c(C(F)(F)F)c1 (stereo unspecified) [BICALUTAMIDE] | 8 | –
12 | COc1ccccc1Oc1c(NS(=O)(=O)c2ccc(C(C)(C)C)cc2)nc(-c2ncccn2)nc1OCCO [BOSENTAN] | 7 | –
13 | CS(=O)(=O)OCCCCOS(C)(=O)=O [BUSULFAN] | 8 | –
14 | NC(=O)N1c2ccccc2C=Cc2ccccc21 [CARBAMAZEPINE] | 7 | –
15 | C[C@@](Cc1ccc(O)c(O)c1)(NN)C(=O)O.O [CARBIDOPA] | 4 | –
16 | O=C(O)c1cn(C2CC2)c2cc(N3CCNCC3)c(F)cc2c1=O [CIPROFLOXACIN] | 7 | –
17 | Nc1ccn([C@@H]2O[C@H](CO)[C@@H](O)[C@@H]2O)c(=O)n1 [CYTARABINE] | – | LTKB_BD DILI severity score (Hepatotoxicity [1]; Liver): 3
18 | CN(C)/N=N/c1[nH]cnc1C(N)=O [DACARBAZINE] | 6 | –
19 | C#C[C@]1(O)CC[C@H]2[C@@H]3CCC4=Cc5oncc5C[C@]4(C)[C@H]3CC[C@@]21C [DANAZOL] | 8 | –
20 | O=C1CN(/N=C/c2ccc(-c3ccc([N+](=O)[O-])cc3)o2)C(O)=N1 [DANTROLENE] | 8 | –
21 | O=C(O)c1ccc(-n2nc(-c3ccccc3O)nc2-c2ccccc2O)cc1 [DEFERASIROX] | 7 | –
22 | O=C(O)Cc1ccccc1Nc1c(Cl)cccc1Cl [DICLOFENAC] | – | LTKB_BD DILI severity score (Hepatotoxicity [1]; Liver): 7
23 | O=c1[nH]cnc2c1ncn2[C@H]1CC[C@@H](CO)O1 [DIDANOSINE] | 8 | –
24 | CC(=O)O[C@@]12CO[C@@H]1C[C@H](O)[C@@]1(C)C(=O)[C@H](O)C3=C(C)[C@@H](OC(=O)[C@H](O)[C@@H](NC(=O)OC(C)(C)C)c4ccccc4)C[C@@](O)([C@@H](OC(=O)c4ccccc4)[C@H]21)C3(C)C.O.O.O [DOCETAXEL] | 8 | –

Row | Compound | LTKB_BD DILI severity score (Hepatotoxicity [1]) | also measured
25 | CC1=NN(c2ccc(C)c(C)c2)C(=O)/C1=N\Nc1cccc(-c2cccc(C(=O)O)c2)c1O [ELTROMBOPAG] | – | LTKB_BD DILI severity score (Hepatotoxicity [1]; Liver): 6
26 | CC[C@H]1OC(=O)[C@H](C)[C@@H](O[C@H]2C[C@@](C)(OC)[C@@H](O)[C@H](C)O2)[C@H](C)[C@@H](O[C@@H]2O[C@H](C)C[C@H](N(C)C)[C@H]2O)[C@](C)(O)C[C@@H](C)C(=O)[C@H](C)[C@@H](O)[C@]1(C)O [ERYTHROMYCIN] | 5 | –
27 | CC[C@@H](CO)NCCN[C@@H](CC)CO [ETHAMBUTOL] | 8 | –
28 | CCc1cccc2c3c([nH]c12)C(CC)(CC(=O)O)OCC3 (stereo unspecified) [ETODOLAC] | 8 | –
29 | NC(=O)OCC(COC(N)=O)c1ccccc1 [FELBAMATE] | 7 | –
30 | CC(C(=O)O)c1cccc(Oc2ccccc2)c1 (stereo unspecified) [FENOPROFEN] | 8 | –
31 | OC(Cn1cncn1)(Cn1cncn1)c1ccc(F)cc1F [FLUCONAZOLE] | – | LTKB_BD DILI severity score (Hepatotoxicity [1]; Liver): 8
32 | CC(C)C(=O)Nc1ccc([N+](=O)[O-])c(C(F)(F)F)c1 [FLUTAMIDE] | 8 | –
33 | NC(=O)NO [HYDROXYUREA] | 8 | –
34 | Cc1cc(C(=O)NNCc2ccccc2)no1 [ISOCARBOXAZID] | 5 | –
35 | NNC(=O)c1ccncc1 [ISONIAZID] | 8 | –
36 | CC(=O)N1CCN(c2ccc(OCC3COC(Cn4ccnc4)(c4ccc(Cl)cc4Cl)O3)cc2)CC1 (stereo unspecified) [KETOCONAZOLE] | 8 | –
37 | CC(CCc1ccccc1)NCC(O)c1ccc(O)c(C(N)=O)c1 (stereo unspecified) [LABETALOL] | 8 | –
38 | Nc1ccn([C@@H]2CS[C@H](CO)O2)c(=O)n1 [LAMIVUDINE] | 8 | –
39 | CS(=O)(=O)CCNCc1ccc(-c2ccc3ncnc(Nc4ccc(OCc5cccc(F)c5)c(Cl)c4)c3c2)o1 [LAPATINIB] | 8 | –
40 | Cc1oncc1C(=O)Nc1ccc(C(F)(F)F)cc1 [LEFLUNOMIDE] | 8 | –
41 | Cc1nnc(C(C)C)n1[C@@H]1C[C@H]2CC[C@@H](C1)N2CC[C@H](NC(=O)C1CCC(F)(F)CC1)c1ccccc1 [MARAVIROC] | 3 | –
42 | Sc1ncnc2nc[nH]c12 [MERCAPTOPURINE ANHYDROUS] | – | LTKB_BD DILI severity score (Hepatotoxicity [1]; Liver): 8
43 | CN(Cc1cnc2nc(N)nc(N)c2n1)c1ccc(C(=O)N[C@@H](CCC(=O)O)C(=O)O)cc1 [METHOTREXATE] | 3 | –
44 | C[C@](N)(Cc1ccc(O)c(O)c1)C(=O)O [METHYLDOPA] | 8 | –
45 | O=C1CC[C@@]2(O)[C@H]3Cc4ccc(O)c5c4[C@@]2(CCN3CC2CC2)[C@H]1O5 [NALTREXONE] | 3 | –
46 | CCc1nn(CCCN2CCN(c3cccc(Cl)c3)CC2)c(=O)n1CCOc1ccccc1 [NEFAZODONE] | 8 | –
47 | Cc1ccnc2c1NC(=O)c1cccnc1N2C1CC1 [NEVIRAPINE] | 8 | –
48 | O=C1CN(/N=C/c2ccc([N+](=O)[O-])o2)C(=O)N1 [NITROFURANTOIN] | – | LTKB_BD DILI severity score (Hepatotoxicity [1]; Liver): 8

Row | Compound | LTKB_BD DILI severity score (Hepatotoxicity [1]) | also measured
49 | CNCCC=C1c2ccccc2CCc2ccccc21 [NORTRIPTYLINE] | – | LTKB_BD DILI severity score (Hepatotoxicity [1]; Liver): 8
50 | Fc1ccc([C@@H]2CCNC[C@H]2COc2ccc3c(c2)OCO3)cc1 [PAROXETINE] | – | LTKB_BD DILI severity score (Hepatotoxicity [2]): 8
51 | CC(C)(S)[C@@H](N)C(=O)O [PENICILLAMINE] | – | LTKB_BD DILI severity score (Hepatotoxicity [2]): 3
52 | CCC1(c2ccccc2)C(=O)NC(=O)NC1=O [PHENOBARBITAL] | – | LTKB_BD DILI severity score (Hepatotoxicity [2]): 3
53 | O=C1NC(=O)C(c2ccccc2)(c2ccccc2)N1 [PHENYTOIN] | – | LTKB_BD DILI severity score (Hepatotoxicity [2]; Liver): 3
54 | CCc1ccc(CCOc2ccc(CC3SC(=O)NC3=O)cc2)nc1 (stereo unspecified) [PIOGLITAZONE] | – | LTKB_BD DILI severity score (Hepatotoxicity [2]): 3
55 | CN1C(C(=O)Nc2ccccn2)=C(O)c2ccccc2S1(=O)=O [PIROXICAM] | – | LTKB_BD DILI severity score (Hepatotoxicity [2]): 3
56 | CC[C@H](C)C(=O)O[C@H]1C[C@H](O)C=C2C=C[C@H](C)[C@H](CC[C@@H](O)C[C@@H](O)CC(=O)O)[C@H]21 [PRAVASTATIN] | – | LTKB_BD DILI severity score (Hepatotoxicity [2]): 3
57 | C[C@]12C=CC(=O)C=C1CC[C@@H]1[C@@H]2[C@@H](O)C[C@@]2(C)[C@H]1CC[C@]2(O)C(=O)CO [PREDNISOLONE] | – | LTKB_BD DILI severity score (Hepatotoxicity [2]): 3
58 | CC(C)NCC(O)COc1cccc2ccccc12 (stereo unspecified) [PROPRANOLOL] | – | LTKB_BD DILI severity score (Hepatotoxicity [2]): 3
59 | NC(=O)c1cnccn1 [PYRAZINAMIDE] | – | LTKB_BD DILI severity score (Hepatotoxicity [2]): 3
60 | CNC(=C[N+](=O)[O-])NCCSCc1ccc(CN(C)C)o1 [RANITIDINE] | – | LTKB_BD DILI severity score (Hepatotoxicity [2]): 5
61 | NC(=O)c1ncn([C@@H]2O[C@H](CO)[C@@H](O)[C@H]2O)n1 [RIBAVIRIN] | – | LTKB_BD DILI severity score (Hepatotoxicity [2]): 7
62 | CN[C@H]1CC[C@@H](c2ccc(Cl)c(Cl)c2)c2ccccc21 [SERTRALINE] | – | LTKB_BD DILI severity score (Hepatotoxicity [2]; Liver): 3
63 | CC(=O)S[C@@H]1CC2=CC(=O)CC[C@]2(C)[C@H]2CC[C@@]3(C)[C@@H](CC[C@@]34CCC(=O)O4)[C@H]12 [SPIRONOLACTONE] | – | LTKB_BD DILI severity score (Hepatotoxicity [2]): 2
64 | C=CC[C@@H]1/C=C(\C)C[C@H](C)C[C@H](OC)[C@H]2O[C@@](O)(C(=O)C(=O)N3CCCC[C@H]3C(=O)O[C@H](/C(C)=C/[C@@H]3CC[C@@H](O)[C@H](OC)C3)[C@H](C)[C@@H](O)CC1=O)[C@H](C)C[C@@H]2OC [TACROLIMUS ANHYDROUS] | – | LTKB_BD DILI severity score (Hepatotoxicity [2]): 5
65 | CN(C)[C@@H]1C(O)=C(C(N)=O)C(=O)[C@@]2(O)C(O)=C3C(=O)c4c(O)cccc4[C@@](C)(O)[C@H]3C[C@@H]12 [TETRACYCLINE] | – | LTKB_BD DILI severity score (Hepatotoxicity [2]): 2
66 | CN(C)CCOc1ccc(/C(=C(/CCCl)c2ccccc2)c2ccccc2)cc1 [TOREMIFENE] | – | LTKB_BD DILI severity score (Hepatotoxicity [2]): 3
67 | O=c1n(CCCN2CCN(c3cccc(Cl)c3)CC2)nc2ccccn12 [TRAZODONE] | – | LTKB_BD DILI severity score (Hepatotoxicity [2]): 5
68 | CN1CCN(CCCN2c3ccccc3Sc3ccc(C(F)(F)F)cc32)CC1 [TRIFLUOPERAZINE] | – | LTKB_BD DILI severity score (Hepatotoxicity [2]): 2
69 | COc1ccc(C(CN(C)C)C2(O)CCCCC2)cc1 (stereo unspecified) [VENLAFAXINE] | – | LTKB_BD DILI severity score (Hepatotoxicity [2]): 7
70 | CC(=O)CC(c1ccccc1)c1c(O)c2ccccc2oc1=O (stereo unspecified) [WARFARIN] | – | LTKB_BD DILI severity score (Hepatotoxicity [2]): 5
71 | CARBOPLATIN | – | LTKB_BD DILI severity score (Hepatotoxicity [2]): 3
